This note sets out measurements from ChEMBL document CHEMBL1133033, “Targeting the dimerization interface for irreversible inhibition of HIV-1 protease” (Bioorg Med Chem Lett, 2000).

For experiment [1], the target named is Human immunodeficiency virus type 1 protease (Human immunodeficiency virus 1) (UniProt Q72874). In words: Maximal inactivation rate of compound tested against HIV-1 protease.
Experiment [2] shares this target. In words: Inhibitory concentration of compound resulting in half-maximal inactivation of HIV-1 protease.

Positions of bridges follow the written chain, without caps; N, C: chain ends. Non-standard residues stand in square brackets, D forms with d. Residues, ends and D or L forms follow the SMILES beside them. Chains are numbered I, II in the order given. ξ: configuration not given here. *: point of attachment. S(3-COOH-4-NO2-phenyl) = O=C(O)c1cc(S*)ccc1[N+](=O)[O-]; C16 diacid = O=C(O)CCCCCCCCCCCCCCC(=O)*; Thr(3ξ) = CC(O)[C@H](N)C(=O)O; ξP = O=C(O)C1CCCN1

Compound `CC[C@H](C)[C@H](NC(=O)[C@H](CCC(N)=O)NC(=O)C1CCCN1C(=O)CCCCCCCCCCCCCCC(=O)N[C@@H](CO)C(=O)N[C@H](C(=O)N[C@@H](CC(C)C)C(=O)N[C@@H](CC(N)=O)C(=O)N[C@@H](CSSc1ccc([N+](=O)[O-])c(C(=O)O)c1)C(=O)O)[C@@H](C)O)C(=O)N[C@H](C(=O)N[C@@H](CC(C)C)C(=O)N[C@@H](Cc1c[nH]c2ccccc12)C(=O)O)C(C)O` (some centres not stated) (I: [ξP]QI[Thr(3ξ)]LW-OH / II: STLNC(S(3-COOH-4-NO2-phenyl))-OH; linker I:N-II:N via C16 diacid) yielded a Vinact in experiment [1] of 0.012 min⁻¹. In addition, the K inact in experiment [2] stood at 3.7 µM.
